This test has as its target EGFR (mouse) (UniProt P00533). As to conditions: swiss 3t3 membrane.

The structures appear in SMILES notation. pIC50: −log10 of the molar value. Some results are limits rather than exact numbers.

As for `N#C/C(=C\c1c[nH]c2ccccc12)C(=O)c1ccc(O)c(O)c1`, the pIC50 was 4.52.

For the molecule `N#CC(C#N)=C(N)/C(C#N)=C/c1c[nH]c2ccccc12`, the pIC50 was less than 3.52.

Take `COc1ccc(OC)c2nc(Cl)c(-c3ccccc3)cc12`: the pIC50 was less than 4.52.

Source of the values: the Kinase Knowledgebase extract (Sharma et al. 2016).
